According to PubChem BioAssay AID1324 (NMMLSC, 2008):
Activity calls are given as the source filed them. How the calls were made is not given here.

Each compound was assayed against glutathione S-transferase (GST-GSH binding) (assay: GST–glutathione interaction disruption – biochemical, multiplex beads, flow cytometry, HPSMTB buffer, profiling panel (AID 1324;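 further: glutathione beads loaded with GST-green fluorescent protein and no fluorescent Bim peptide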)). Details: multiplex bead flow cytometry, MCF, concentration not given here.

| percent span inhibition | SMILES |
| --- | --- |
| inactive | COCCn1nnnc1CN(Cc1ccco1)Cc1cc2cc3c(cc2[nH]c1=O)OCO3 |
| inactive | Cc1cc(C)cc(NS(=O)(=O)c2ccc3c(c2)c(=O)n(C)c(=O)n3C)c1 |
| inactive | O=C(CCCN1C(=O)c2cccc3cccc(c23)C1=O)N1CCN(c2ccccn2)CC1 |
| inactive | CCn1c(SCC(=O)Nc2ccccc2-c2ccccc2)nnc1-c1ccoc1C |

The remaining lines, values behind:

| SMILES | percent span inhibition |
| --- | --- |
| O=C1c2ccccc2C(=O)N1c1cccc2cccnc12 | inactive |
| O=C(O)CC1S/C(=N/N=C/C=C/c2ccccc2[N+](=O)[O-])NC1=O (stereo unspecified) | inactive |
| CCCC1(C(=O)OCC)NC(c2cc(OC)c(OC)c(OC)c2)C2C(=O)N(CC)C(=O)C21 (stereo unspecified) | inactive |
| COc1ccc(/C=C/C(=O)Nc2sc(Cc3ccccc3)c(C)c2C(N)=O)cc1 | inactive |
| Cc1nc2scc(-c3ccccc3)c2c(=O)n1N=C1C=CC(=O)C=C1 | inactive |
| COc1ccc(NC(=O)Cc2c(F)cccc2Cl)c(OC)c1 | inactive |
| Cc1cc(N/C(=N/S(=O)(=O)c2cc(F)ccc2F)c2ccccc2)n(-c2ccccc2)n1 | inactive |
